{"source": "patent US20230405132A1", "about": "“ANTITUMOR PHARMACEUTICAL COMPOSITION AND USE THEREOF” (JENKEM TECHNOLOGY CO., LTD. (TIANJIN), priority 2020, published 2023)", "key": {"SK-N-SH cells": {"tested_on": "SK-N-SH cells", "assay": "SK-N-SH subcutaneous tumor model in mice: tumor volume and tumor growth inhibition", "type": "in vivo, mouse", "conditions": "for tumor inhibition rate: SK-N-SH subcutaneous tumor model; for Tumor volume, mean ± standard error: TMZ 20 mg/kg PO, irinotecan hydrochloride or PEG-irinotecan 30 mg/kg IV", "description": "SK-N-SH cells were cultured in an EMEM medium containing 10% heat-inactivated fetal bovine serum, 100 μg/mL penicillin, and 100 μg/mL streptomycin (incubator condition: 37° C., 5% CO 2). The cells were subcultured twice a week. The cells in the exponential phase were collected, and counted grafting.\n2.2 Tumor grafting and grouping 100 μL of a mixture of EMEM and 50% matrigel containing 5×10^6 SK-N-SH cells was grafted subcutaneously at the right abdomen of a mouse, and the tumor growth was observed. 80 animals were randomized according to tumor volume (103 mm 3) by using the grouping randomization method in Excel. […] Each group had 10 tumor-bearing mice.\nTumor volume was measured twice a week using a vernier caliper.\n(§1) The body weight and tumor volume were compared by using two-way ANOVA analysis. All data were analyzed using GraphPad Prism 5. p<0.05 indicates statistical significance."}, "[1]": {"assay": "Body weight of tumor-bearing mice during treatment", "type": "in vivo, mouse", "conditions": "TMZ 20 mg/kg PO, irinotecan hydrochloride or PEG-irinotecan 30 mg/kg IV", "description": "All procedures related to animal handling, care, and treatment in this study were performed according to the assessment of the Institutional Animal Care and Use Committee (IACUC) approved by Shanghai BioDuro Co., Ltd. (the CRO) and followed guidelines of the Association for Assessment and Accreditation of Laboratory Animal Care (AAALAC, accreditation number: 001516). In routine monitoring, the animals were examined that whether any adverse effects of tumor growth and/or treatment on normal behavior were present, such as motility, food and water consumption (by observation only), and body weight gain/loss (the body weight was measured twice a week during the pre-administration phase and daily during the administration phase), eye/hair matting and any other abnormalities.\nas §1"}}, "note": "Where a name gives a salt, the structure may show the parent alone."}
{"compound": "CCc1c2c(nc3ccc(OC(=O)N4CCC(N5CCCCC5)CC4)cc13)-c1cc3c(c(=O)n1C2)COC(=O)[C@]3(O)CC", "note": "[Irinotecan hydrochloride]", "values": [{"measurement": "1 − T/C (tumor inhibition rate TGI)", "setting": "SK-N-SH cells; D 34", "value": 30.99, "unit": "%"}, {"measurement": "T/C (relative tumor proliferation rate)", "setting": "SK-N-SH cells; D 34", "value": 69.01, "unit": "%"}, {"measurement": "tumor inhibition rate", "setting": "SK-N-SH cells", "value": 31.0, "unit": "%"}, {"measurement": "Animal body weight, mean ± standard error", "setting": "[1]; day 24", "value": "22 ± 0.4", "unit": "g"}, {"measurement": "Animal body weight, mean ± standard error", "setting": "[1]; day 27", "value": "21.8 ± 0.5", "unit": "g"}, {"measurement": "Animal body weight, mean ± standard error", "setting": "[1]; day 31", "value": "23 ± 0.5", "unit": "g"}, {"measurement": "Animal body weight, mean ± standard error", "setting": "[1]; day 34", "value": "24.3 ± 0.5", "unit": "g"}, {"measurement": "Animal body weight, mean ± standard error", "setting": "[1]; day 38", "value": "23.2 ± 0.4 (n = 8) g"}, {"measurement": "Animal body weight, mean ± standard error", "setting": "[1]; day 41", "value": "21 (n = 1) g"}]}
{"compound": "Cn1nnc2c(C(N)=O)ncn2c1=O", "note": "[Temozolomide]", "values": [{"measurement": "1 − T/C (tumor inhibition rate TGI)", "setting": "SK-N-SH cells; D 34", "value": 25.04, "unit": "%"}, {"measurement": "tumor inhibition rate", "setting": "SK-N-SH cells", "value": 25.0, "unit": "%"}, {"measurement": "TV (b: Tumor volume on day 34)", "setting": "SK-N-SH cells; Table 5, day 34", "value": "1827.5 ± 262.2", "unit": "mm^3"}, {"measurement": "Tumor volume, mean ± standard error", "setting": "SK-N-SH cells; day 27", "value": "462.9 ± 67.1", "unit": "mm^3"}, {"measurement": "Tumor volume, mean ± standard error", "setting": "SK-N-SH cells; day 31", "value": "1071 ± 144.9", "unit": "mm^3"}, {"measurement": "Tumor volume, mean ± standard error", "setting": "SK-N-SH cells; day 34", "value": "1827.5 ± 262.2 (n = 9) mm^3"}, {"measurement": "Tumor volume, mean ± standard error", "setting": "SK-N-SH cells; day 38", "value": "2179.6 ± 209.6 (n = 5) mm^3"}, {"measurement": "Tumor volume, mean ± standard error", "setting": "SK-N-SH cells; day 41", "value": "3004.1 ± 100.8 (n = 2) mm^3"}, {"measurement": "Animal body weight, mean ± standard error", "setting": "[1]; day 24", "value": "21.7 ± 0.4", "unit": "g"}, {"measurement": "Animal body weight, mean ± standard error", "setting": "[1]; day 27", "value": "21.5 ± 0.5", "unit": "g"}, {"measurement": "Animal body weight, mean ± standard error", "setting": "[1]; day 31", "value": "22 ± 0.6", "unit": "g"}, {"measurement": "Animal body weight, mean ± standard error", "setting": "[1]; day 34", "value": "23.7 ± 0.7 (n = 9) g"}, {"measurement": "Animal body weight, mean ± standard error", "setting": "[1]; day 38", "value": "22.5 ± 0.5 (n = 5) g"}, {"measurement": "Animal body weight, mean ± standard error", "setting": "[1]; day 41", "value": "23.3 ± 1.1 (n = 2) g"}]}
